Test results from patent US20230226135A9, “ACETYLCHOLINE MODULATION OF IMMUNE FUNCTION” (BCell Solutions, Inc., priority 2019, published 2023).

Legend:
[1] = test system: blood brain barrier (BBB); experiment: Intravital microscopy of BBB permeability and lymphocyte adhering/rolling in pial venules; assay type: in vivo, C57 BL/6J mice; settings: P3C i.p., 24 hours
Source text: Whether intranasal infection with Streptococcus pyogenes would induce blood-brain barrier permeability in C57 BL/6J mice by a TLR-dependent mechanism was examined. Immediately following craniotomy, mice were placed under an intravital microscope to study vascular permeability and leukocytes. Permeability of cerebral blood vessels was observed using FITC-dextran fluorescent dye and, tracing of leukocytes is observed by labeling such cells with Rhodamine-6G. Intranasal infection with Streptococcus pyogenes (gram positive) increased BBB permeability (FIG. 4) and the number of adherent or rolling lymphocytes (FIG. 4) within 24 hours post-infection, compared to saline treated controls.
Methods: To test the hypothesis that intranasal infection may increase BBB permeability, we exposed mice to GAS via intranasal infection with Streptococcus pyogenes (GAS). We assessed BBB permeability using intravital microscopy, and we characterized the immune response to GAS using flow cytometric analysis of nasal associated lymphoid tissue (NALT), spleen, and brain.
Intranasal infection: Isoflurane gas was employed to briefly anesthetize mice (1-2 minutes). Once anesthetized, 7.5 uL of streptococcal bacterial suspension (OD600=0.5-0.6) was placed on each nares (outer nostril) of mouse. Control mice received intranasal inoculation with vehicle (PBS). The droplets were inhaled into nasal sinuses. This small volume avoids inoculation of the lungs, but reproducibly results in colonization of nasal-associated lymphoid tissue (NALT, Park 2003; Wang 2010).
Intraperitoneal injection: The TLR 1/2 agonist, Pam-3-Cys (25 ug/mouse; Pam3CSK4, InvivoGen, San Diego Calif.) was intraperitoneally (right side) injected into mice 24 hours before intravital microscopy. P3C causes immune cell activation and polycolonal expansion of B-lymphocytes by Toll-Like receptor ligation (Newell 2010). Control mice received equal volume of vehicle (PBS) intraperitoneally.
MHC class II-targeted proprietary peptide (TPP, Elim Biopharmaceuticals Inc., Hayward Calif.; also see Newell 2010) was administered intraperitoneally (5 ug/mouse, left side), sometimes in conjunction with P3C (right side). TPP was dissolved in DMSO for a final concentration of 2.5% DMSO in PBS. Control mice received vehicle (2.5% DMSO in PBS) intraperitoneally.
Preparation of Mice: Mice were anesthetized with an (i.p.) injection of 50% urethane (Sigma-Aldrich, U2500) in PBS ([…]) and maintained on heating pad. Anesthetic plane was assessed throughout preparation and experiments, by response to toe pinch. If needed, urethane supplement was given at 10% of original dose volume. To prepare mice tails for intravenous (i.v.) dye injection we maintained anesthetized mice on a heating pad for 10-15 minutes, and then briskly wiped tails (toward tail-end) with 70% ethanol wipes to remove scales/hair and increase vasodilation. Immediately following tail wiping, Fluorescein dextran 10 kDa (10 mg/mL, Sigma-Aldrich, FD10S) was administered (2 uL/g mouse) via right lateral tail vein and, Rhodamine 6G (0.2 mg/mL, Sigma-Aldrich, 83697) was administered (1.6 uL/g mouse) via left lateral tail vein. When needed, tail was wiped multiple times to ensure clear visualization of tail veins. Following successful (i.v.) injection of dyes, mice underwent craniotomy.
Craniotomy: A craniotomy (removal of a small area of skull) was performed to expose the cerebrum and allow imaging of cerebral microvasculature (specifically pial vessels of pia mater). First, an incision across the midline of the scalp was made to expose the right parietal bone. The skull was then carefully marked with a waterproof marker, designating the area, 1 mm posterior from the Bregma and 4 mm lateral from the midline, to be removed (craniotomy diameter: 2.5 mm). Next, the craniotomy was performed with a drill ensuring the dura mater was not cut. […]

[2] = test system: splenic B cells; experiment: alpha 7 nAChR expression on splenic B cells after TLR 9 agonist CpG (flow cytometry); assay type: cell-based, mouse; settings: after CpG treatment
Experimental: Cell Culture. Mice were sacrificed and spleens were removed. The tissues were dissociated, from which single cell suspensions were made by passing the spleens through 40 μm cell strainers. Red blood cells were lysed using ACK Buffer (Sigma, Inc). Cells were then cultured with TLR ligands at the designated concentrations at 1.010^6 cells/mL in 6 well plates. Cells were grown in RPMI 1640 (Invitrogen) supplemented with 5% fetal bovine serum (Invitrogen) in a humidified 5% CO2 incubator at 37° C. for the designated time period.
Isolation of Splenic Cells. Splenocytes were isolated from 8 week old C57BL/6J mice. Following sacrifice, spleens were removed and splenocytes isolated as above. Cells were then resuspended in complete RPMI and were cultured with the TLR ligands at the designated concentrations at 10^6 cells/mL in 6 well plates. […]
Antibodies and Flow Cytometry. […] Following staining, cells were analyzed comparing each level of staining to the appropriate isotype control on a Beckman Coulter Cytoflex benchtop flow cytometer. Data was analyzed using FlowJo software (Tree Star Inc.).
In FIG. 1A the X-axis represents fluorescence intensity of MHC class II expression on untreated splenic B cells from a C57BL6 mouse. […] The X axis reflects the relative fluorescence intensity before (green histogram) and after treatment with the TLR 9 agonist CpG (blue histogram).

[3] = test system: CLIP+ B cells; experiment: CFA-induced arthritis model, CAP depletion of B cells with or without α7nAChR antagonist; assay type: in vivo, mice; settings: co-treated with CAP, CFA model
Experimental: FIGS. 11A-11B. […] In this study, CAP was administered at 3 days after CFA, then once daily every 3 days, until day 10 after CFA.
The next series of experiments are focused on the effects of CAP on splenic immune cells. […] As part of this experiment, the mice were co-treated with CAP and the alpha-7 nicotinic acetylcholine receptor (α7nAChR) antagonist, methyllycaconitine (MCA).

[4] = Dosing formulation storage and stability; assay type: physicochemical; settings: 0.6 mg/mL in saline, frozen at -20 C
Experimental: Test Article Formulation Instructions & Calculations: Peptide dosing solution (0.2 mg/mL) was made fresh daily within 1 hour of use by diluting 0.09 mL of 5 mg/mL DMSO stock into 2.11 mL sterile saline. DMSO stock was kept at 4 C, then refrozen (to avoid repeated freeze-thaw cycles). Still, stock was relatively “solid” even at 4 C.
MLA antagonist dosing solution (0.6 mg/mL) was made on Day 2 by diluting the entire 5 mg in the sealed vial with 8.3 mL of sterile saline and aliquoting out ˜1.1 mL in each of seven 2 mL cryovials and freezing at −20 C. Four vials were used in the experiment, each thawed within 1 hour of use. Three vials remain frozen.
Dosing Formulations and Vehicle Storage & Stability: Saline vehicle is stable at 4 C for months. Peptide dosing solutions were made up and used fresh daily. […] MLA frozen “stock” solutions were stable for up to 1 month.

[5] = test system: splenic B cells; experiment: CFA-sensitized mice treated with Peptide with or without MLA, FACS of splenic B cells; assay type: in vivo
Experimental: SUMMARY: A study was conducted to evaluate a potential alpha7 nAChR anti-inflammatory mechanism of the MKR-4 peptide, using the alpha7 nAChR antagonist methyllycaconitine (MLA). After enrollment, animals in Groups 2-4 were sensitized ID at the base of the tail with 0.1 mL FCA on Day 1. On Days 2, 3, 5 & 7 Groups were then dosed intraperitoneally (IP) with either: peptide and MLA in combination (2 mg/kg and 6 mg/kg, respectively); peptide (2 mg/kg) and MLA vehicle (saline) in combination; or peptide vehicle (saline) and MLA vehicle (saline). Animals were dosed once on Study Day 2 (MLA or MLA vehicle), and Days 3, 5 & 7 (Peptide or Peptide vehicle, MLA or MLA vehicle) as described in Table 2 below. Body weights were recorded on Study Days 0 & 8. Mice were euthanized for necropsy on Study Day 8, and serum and whole spleens were collected from all animals and sent to the sponsor for internal FACS analysis. Toxicity and Peptide mechanistic evaluation was based on absolute body weight change, spleen weights and sponsor FACS analysis (not included in report).
Antibodies and Flow Cytometry. Single cell suspensions were made of tissues or cells harvested from culture and stained with the following monoclonal antibodies: a monoclonal antibody directed against mouse alpha 7 nicotinic acetylcholine receptor (alpha 7 nAChR) (Santa Cruz Biotechnology); anti-mouse MHC Class II (M5114), and anti-mouse CLIP 15G4, Santa Cruz. Following staining, cells were analyzed comparing each level of staining to the appropriate isotype control on a Beckman Coulter Cytoflex benchtop flow cytometer. Data was analyzed using FlowJo software (Tree Star Inc.).
Experimental Design: On Study Day 0, mice were weighed and randomized by body weight into treatment groups. Following randomization, on Study Day 1, Groups 2-4 were sensitized ID at the base of the tail with 0.1 mL of FCA. When MLA and Peptide (FRIMAVLAS (SEQ ID NO: 389))—or their vehicles—were dosed on the same day, the MLA antagonist or vehicle was dosed 1 hour before the Peptide or its vehicle.
On Study Day 8, mice were anesthetized with Isoflurane (VetOne, Cat #502017) and bled to exsanguination followed by cervical dislocation for necropsy and tissue collection.

[6] = test system: CD8+ T cells; experiment: CAP-induced expansion of CD8+ T cells with or without α7nAChR antagonist; assay type: in vivo; settings: with CAP

Pam-3-Cys [P3C, reference compound]
largest observed diameter of adherent lymphocytes [1]: 15 um
number of rolling lymphocytes ([1]; vs control, p<0.01): significantly increased
number of adherent lymphocytes ([1]; vs control, p<0.05): significantly increased
average diameter of adherent lymphocytes ([1]; control 5 um): 10 um

5′-tcgtcgttttgtcgttttgtcgtt-3′ [CpG]
relative level of expression of nAChR per cell [2]: increases
total splenocytes that express alpha 7 nAChR ([2]; untreated 9%): 37.6%

CCN1C[C@]2(COC(=O)c3ccccc3N3C(=O)C[C@H](C)C3=O)CC[C@H](OC)[C@@]34[C@@H]5C[C@H]6[C@H](OC)[C@@H]5[C@](O)(C[C@@H]6OC)[C@@](O)([C@@H](OC)[C@H]23)[C@@H]14 [MLA, methyllycaconitine, reference compound]
effect of α7nAChR antagonist on CAP-induced decrease in B cell expansion [3]: reversed
effect of α7nAChR antagonist on CAP-induced decrease in B cell expansion ([3]; listed as MCA): prevented
stability of frozen stock solutions [4]: up to 1 month
effect of MLA on Peptide induced reduction in CLIP+ B cells ([5]; CFA treated mice, MLA 6 mg/kg IP 1 hour before Peptide): reversed
percentage of splenic B cells ([5]; CFA treated, Peptide treated (2 mg/kg) and treated with MLA (6 mg/kg IP)): 44.8%
effect of α7nAChR antagonist on CAP-induced CD8+ T cell expansion [6]: reversed
effect of α7nAChR antagonist on CAP-induced CD8+ T cell expansion ([6]; listed as MCA): blocked
